Measurements published in PMC5274652, “Antagonizing Retinoic Acid Receptors Increases Myeloid Cell Production by Cultured Human Hematopoietic Stem Cells” (Archivum Immunologiae et Therapiae Experimentalis, 2016).

Experiments:
CD34^+vehuHSCs [1] = conditions: 100 nM, 2 weeks, 2 donors
Procedure: (§1) Assays for week-five cobblestone area forming cells (CAFC), long-term culture-initiating cells (LTC-IC), and colony-forming units (CFU) were performed at the Stem Cell Laboratory at the National Blood Service Stem Cell Laboratory using standard procedures and methods, as described by other workers (de […] and Ploemacher [2001]; Denning-Kendall et al. [1996]; Nicol et al. [1996]). CFU assays were performed using Methocult^TM GF H8444 (StemCell Technologies) and in 35 mm petri dishes. The presence of CAFC was scored as the presence of 12 or more closely associated and small cells that were embedded in the MS5 cell feeder layer and blind by an experienced reader. The nature of CFUs, as to colony-forming unit-granulocyte/erythroid/megakaryocyte/monocyte (CFU-GEMM), colony-forming unit-granulocyte/macrophage (CFU-GM), burst-forming unit-erythroid (BFU-E), and colony-forming unit-erythroid (CFU-E), was scored blind at the service by a person who routinely reads colony assays and is accredited. The nature of colonies was confirmed by sampling colonies and staining cytocentrifuged preparations of cells.

[2] = test system: lineage^−ve/CD133^+ve/CD34^+vehuHSC; assay: Ex vivo expansion of lineage-ve/CD133+ve/CD34+ve huHSC; type: cell-based, human
Excerpt: The cells used were CD34^+ve cells purified from the blood of normal human adult donors and post-mobilization of stem cells to the blood. Cells obtained and purified in this manner are used routinely by the National Blood Service Stem Cell Laboratory in Birmingham for bone marrow transplantation. Ethics approval for the use of adult human blood-mobilized stem cells (CD34^+vehuHSC) was from the West Midlands Research Ethics Committee. Informed consent was obtained by the regional National Blood Service Stem Cell Laboratory in Birmingham. CD34^+ve cells were purified to 99 % CD34^+ve, 97 % CD133^+ve, >99 % lineage^−ve (n = 15) using an anti-CD34 monoclonal antibody, immunomagnetic beads, and a CliniMACS magnetic separator. Purified cells were plated at 5 × 10^5 cells/ml in microtiter wells in 200 μl of either RPMI-1640 medium (R and D Systems, Abingdon, UK) or HPGM^TM hematopoietic growth medium (Lonza, UK) containing either 10 % FBS or 10 % human serum, antibiotics (100 U/ml penicillin and 100 μg/ml streptomycin) and stem cell factor (SCF), interleukin (IL)-3, and granulocyte-colony stimulating factor (G-CSF) (all from R and D Systems Abingdon, UK) as stated in the results. Cultures were fed every 2–3 days (with fresh compound), split into microtiter wells, and then expanded into 2 ml Costar wells to maintain a cell density of between 2.5 and 10 × 10^5 cells/ml. Cells were grown at 37 °C in 5 % CO2. […]
The expression of differentiation markers at the cell surface was determined by flow cytometry. Differentiation of NB-4 and KG1 cells was measured by staining using the monoclonal antibodies CD11b-FITC and CD14-PE and appropriately labeled isotype controls (all from ImmunoTools, Friesoythe, Germany). Differentiation of human CD34^+ve cells was measured by triple-color staining using various cocktails of phycoerythrin-, fluorescein isothyocyanate-, and PerCP-monoclonal antibodies (from Becton–Dickinson, San Jose, CA, USA). […] Cells were analyzed using a FACSCalibur, and data analysis was performed using the CellQuest Pro software (Becton–Dickinson, San Jose, CA, USA).

human RARα = target: T1, human RARα (Homo sapiens, UniProt P10276); assay: Competition with [3H]-ATRA binding, nuclear extracts of Sf21 cells expressing RARα; conditions: nuclear extracts of baculovirus-infected Sf21 cells, read-out: Binding affinity ED50, RARα
T1 construct: made in house
T1 sequence (P10276 1-462): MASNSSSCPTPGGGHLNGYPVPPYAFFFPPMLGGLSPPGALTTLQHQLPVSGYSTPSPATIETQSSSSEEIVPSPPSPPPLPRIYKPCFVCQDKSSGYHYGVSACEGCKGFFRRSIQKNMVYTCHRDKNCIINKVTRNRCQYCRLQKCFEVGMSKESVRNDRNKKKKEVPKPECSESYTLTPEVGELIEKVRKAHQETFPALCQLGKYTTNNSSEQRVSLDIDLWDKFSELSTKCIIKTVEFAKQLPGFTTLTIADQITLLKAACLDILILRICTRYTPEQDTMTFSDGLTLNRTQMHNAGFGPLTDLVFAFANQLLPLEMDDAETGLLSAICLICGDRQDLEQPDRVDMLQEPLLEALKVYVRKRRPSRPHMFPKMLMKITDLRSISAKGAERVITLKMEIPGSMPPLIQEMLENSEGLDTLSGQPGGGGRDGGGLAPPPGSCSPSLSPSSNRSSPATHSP

KG1 cells = assay: Differentiation of KG1 cells (CD11b/CD14 flow cytometry); type: cell-based, human; conditions: 96 h
Procedure: NB-4 and KG1 cells were obtained from the German Resource Center for Biological Material (DSMZ GmbH, Braunschweig, Germany). The cells were grown in RPMI-1640 medium supplemented with 10 % fetal bovine serum (FBS), 100 U/ml penicillin, and 100 µg/ml streptomycin (Sigma, St Louis, MO, USA). Cells were grown at 37 °C in 5 % CO2.
(§2) The expression of differentiation markers at the cell surface was determined by flow cytometry. Differentiation of NB-4 and KG1 cells was measured by staining using the monoclonal antibodies CD11b-FITC and CD14-PE and appropriately labeled isotype controls (all from ImmunoTools, Friesoythe, Germany). Differentiation of human CD34^+ve cells was measured by triple-color staining using various cocktails of phycoerythrin-, fluorescein isothyocyanate-, and PerCP-monoclonal antibodies (from Becton–Dickinson, San Jose, CA, USA). The markers used to identify cell populations were as follows: CD45^+ve leukocytes; CD34^+ve/CD133^+ve HSCs; CD33^+ve/CD13^+ve immature myeloid; CD117^+ve myeloblasts and promyelocytes; CD11b^+ve/CD15^+ve mature myeloid; CD11b^+ve/CD65^+ve neutrophils; CD11b^+ve/CD14^+ve monocytes; glycophorin^+ve A erythroid cells; CD61^+ve megakaryoblasts and platelets; CD2^+ve/CD5^+ve/CD7^+ve T cells and NK cells; CD56^+ve NK cells; CD19^+ve/CD20^+ve B cells; and CD10^+ve B lymphocyte progenitors; and present on mature neutrophils and DR^+ve progenitors and present on mature monocytes. The cells were stained with 1 µl of the fluorescently labeled antibody (or the appropriate control immunoglobulin) for 1 h on ice. Next, they were washed with ice-cold phosphate-buffered saline (PBS) and suspended in 0.5 ml PBS supplemented with 0.1 % bovine serum albumin (Sigma, St Louis, MO, USA) prior to analysis on FACS Calibur flow cytometer (Becton–Dickinson, San Jose, CA, USA). The acquisition parameters were set for an isotype control. Cells were analyzed using a FACSCalibur, and data analysis was performed using the CellQuest Pro software (Becton–Dickinson, San Jose, CA, USA).

CD34^+vehuHSCs [3] = assay: Week-five CAFC and LTC-IC assays of cultured CD34+ve huHSC; type: cell-based, human; conditions: 100 nM, cells cultured 2 weeks, two donors
Procedure: as §1

CD34^+vehuHSC = assay: Cell production and lifespan of CD34+ve huHSC-initiated cultures; type: cell-based, human
Excerpt: The cells used were CD34^+ve cells purified from the blood of normal human adult donors and post-mobilization of stem cells to the blood. Cells obtained and purified in this manner are used routinely by the National Blood Service Stem Cell Laboratory in Birmingham for bone marrow transplantation. Ethics approval for the use of adult human blood-mobilized stem cells (CD34^+vehuHSC) was from the West Midlands Research Ethics Committee. Informed consent was obtained by the regional National Blood Service Stem Cell Laboratory in Birmingham. CD34^+ve cells were purified to 99 % CD34^+ve, 97 % CD133^+ve, >99 % lineage^−ve (n = 15) using an anti-CD34 monoclonal antibody, immunomagnetic beads, and a CliniMACS magnetic separator. Purified cells were plated at 5 × 10^5 cells/ml in microtiter wells in 200 μl of either RPMI-1640 medium (R and D Systems, Abingdon, UK) or HPGM^TM hematopoietic growth medium (Lonza, UK) containing either 10 % FBS or 10 % human serum, antibiotics (100 U/ml penicillin and 100 μg/ml streptomycin) and stem cell factor (SCF), interleukin (IL)-3, and granulocyte-colony stimulating factor (G-CSF) (all from R and D Systems Abingdon, UK) as stated in the results. Cultures were fed every 2–3 days (with fresh compound), split into microtiter wells, and then expanded into 2 ml Costar wells to maintain a cell density of between 2.5 and 10 × 10^5 cells/ml. Cells were grown at 37 °C in 5 % CO2. Viable cells were enumerated by phase contrast microscopy (400× magnification).
as §2

CCc1ccc(C2=CC(C)(C)Sc3ccc(C#Cc4ccc(C(=O)O)cc4)cc32)cc1 [AGN194310]
BFU-E together with CFU-E as share of the total colony-forming units (CD34^+vehuHSCs [1]; control 7 %): 41% | CFU-GM as share of the total colony-forming units (CD34^+vehuHSCs [1]; control 93 %): 56% | CFU-GEMM as share of the total colony-forming units (CD34^+vehuHSCs [1]; control not detected): 3% | level of expansion of lineage−ve/CD133+ve/CD34+ve huHSC ([2]; 100 nM, day 30, HPGM, 10 % human serum, 100 ng/ml SCF, mean of seven donors, control ~eightfold): ~ 18 fold | expansion of lineage−ve/CD133+ve/CD34+ve cells ([2]; all 15 donors, control 8–10-fold): around 20 fold | IC50 (human RARα): 4.3 nM | effect on differentiation of KG1 cells (KG1 cells; 100 nM together with 10 nM 1,25D): no effect | effect on differentiation of KG1 cells (KG1 cells; 100 nM, used alone): no effect | presence of week-five CAFC and LTC-IC (CD34^+vehuHSCs [3]): only present in pan-RAR-antagonized wells | cells produced versus control cultures (CD34^+vehuHSC; 10 nM, by day 20, 10 % FBS, SCF, IL-3): around fourfold more cells | time for which cultures were maintained (CD34^+vehuHSC; 10 nM, 10 % FBS, SCF, IL-3, control cultures expire by day 30): ≤ 55 days | kinetic of cell production compared with 10 nM (CD34^+vehuHSC; 100 nM, data not shown): almost identical kinetic | effect on rate of myeloid cell differentiation (CD34^+vehuHSC; CD34+ve huHSC cultures): did not slow down myeloid cell differentiation | prolonged lifespan of cultures (CD34^+vehuHSC; human HSCs supplemented with stem cell factor ± interleukin 3, abstract): up to 55 days
